From patent US8435980B2 (AbbVie Inc., priority 2009, dated 2013)

Target: T1, Cdc7 (BEV coexpressed huCDC7/DBF4) (Homo sapiens, UniProt O00311)
T1 construct: made in house; host or cells: BEV (baculovirus expression vector) co-expression; insect cells are implied but no cell line is named
Test: Cdc7 enzyme inhibition assay ([33P]ATP, biotinylated peptide substrate, FlashPlate)
Type: biochemical
Settings: Table 3; enzyme inhibition data (Ki)
Method: Cdc7 (BEV coexpressed huCDC7/DBF4) is prepared internally. Cdc7 assays are conducted as follows with final concentrations as listed. […] Reactions are quenched after 1 hr by the addition of 90 μL stop buffer (50 mM EDTA, 2M NaCl). […] (Ki) for exemplary compounds.

T1 sequence (O00311 whole entry): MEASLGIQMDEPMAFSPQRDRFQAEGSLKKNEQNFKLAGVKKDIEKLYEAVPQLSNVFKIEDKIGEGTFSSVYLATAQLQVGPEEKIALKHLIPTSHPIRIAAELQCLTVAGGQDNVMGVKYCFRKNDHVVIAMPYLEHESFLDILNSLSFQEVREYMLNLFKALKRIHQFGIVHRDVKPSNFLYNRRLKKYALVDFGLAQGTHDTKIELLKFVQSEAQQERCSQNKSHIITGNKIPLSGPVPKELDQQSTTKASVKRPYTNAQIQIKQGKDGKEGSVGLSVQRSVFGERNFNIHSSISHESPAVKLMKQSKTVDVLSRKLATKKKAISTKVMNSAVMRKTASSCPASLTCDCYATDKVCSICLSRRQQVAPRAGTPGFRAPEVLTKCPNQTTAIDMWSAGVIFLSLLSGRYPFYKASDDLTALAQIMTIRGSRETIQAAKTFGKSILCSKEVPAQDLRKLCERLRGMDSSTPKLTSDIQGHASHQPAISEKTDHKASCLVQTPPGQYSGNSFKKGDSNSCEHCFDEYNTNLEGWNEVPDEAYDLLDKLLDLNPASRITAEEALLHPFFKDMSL
T1 sequence (Q9UBU7 whole entry partner): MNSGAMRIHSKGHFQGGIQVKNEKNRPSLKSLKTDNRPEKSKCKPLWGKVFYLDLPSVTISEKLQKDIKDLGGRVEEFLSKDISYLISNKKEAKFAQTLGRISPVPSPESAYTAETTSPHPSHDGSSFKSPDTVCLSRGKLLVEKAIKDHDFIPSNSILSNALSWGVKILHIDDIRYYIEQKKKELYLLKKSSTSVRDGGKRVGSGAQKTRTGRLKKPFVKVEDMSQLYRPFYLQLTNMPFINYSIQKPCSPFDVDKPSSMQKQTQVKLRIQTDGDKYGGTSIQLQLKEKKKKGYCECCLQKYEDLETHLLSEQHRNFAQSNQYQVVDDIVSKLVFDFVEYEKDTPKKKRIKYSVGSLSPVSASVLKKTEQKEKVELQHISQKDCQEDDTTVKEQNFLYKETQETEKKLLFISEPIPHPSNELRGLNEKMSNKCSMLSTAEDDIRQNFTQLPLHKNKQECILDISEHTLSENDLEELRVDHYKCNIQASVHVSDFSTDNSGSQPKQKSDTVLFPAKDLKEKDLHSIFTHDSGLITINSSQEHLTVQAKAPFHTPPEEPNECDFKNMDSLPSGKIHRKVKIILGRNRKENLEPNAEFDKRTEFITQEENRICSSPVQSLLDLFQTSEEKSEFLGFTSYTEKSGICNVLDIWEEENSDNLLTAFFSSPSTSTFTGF

Question: For `COc1cnc2[nH]cc(-c3cc(Cl)nc(N[C@H]4CC[C@H](NC(=O)CNC5CCCCC5)CC4)c3)c2c1` [Example 251, N-(trans-4-{[6-chloro-4-(5-methoxy-1H-pyrrolo[2,3-b]pyridin-3-yl)pyridin-2-yl]amino}cyclohexyl)-N^2-cyclohexylglycinamide], which Ki is on record?
Answer: < 10 nM

Question: `COc1cnc2[nH]cc(-c3cc(Cl)nc(NC4CCC(C5CCN(C6CCC6)CC5)CC4)c3)c2c1` (stereo not shown) [Example 252, 6-chloro-N-[4-(1-cyclobutylpiperidin-4-yl)cyclohexyl]-4-(5-methoxy-1H-pyrrolo[2,3-b]pyridin-3-yl)pyridin-2-amine] was tested. Which Ki did it give?
Answer: < 10 nM

Question: With `COc1cnc2[nH]cc(-c3cc(Cl)nc(N[C@H]4CC[C@H](NS(=O)(=O)C5CCCCC5)CC4)c3)c2c1` [Example 253, N-(trans-4-{[6-chloro-4-(5-methoxy-1H-pyrrolo[2,3-b]pyridin-3-yl)pyridin-2-yl]amino}cyclohexyl)cyclohexanesulfonamide] as the compound, how does the Ki read?
Answer: < 10 nM

Question: Which Ki does the source give for `COc1cnc2[nH]cc(-c3cc(Cl)nc(N[C@H]4CC[C@H](NC(=O)CN5CCOCC5)CC4)c3)c2c1` [Example 254, N-(trans-4-{[6-chloro-4-(5-methoxy-1H-pyrrolo[2,3-b]pyridin-3-yl)pyridin-2-yl]amino}cyclohexyl)-2-(morpholin-4-yl)acetamide] here?
Answer: < 10 nM

Question: For `CC(=O)Nc1cccc(-c2cnc3[nH]cc(-c4cc(Cl)nc(NC5CCCCC5)c4)c3c2)c1` [Example 255, N-(3-{3-[2-chloro-6-(cyclohexylamino)pyridin-4-yl]-1H-pyrrolo[2,3-b]pyridin-5-yl}phenyl)acetamide], which Ki is on record?
Answer: < 10 nM

Question: How did the Ki turn out when `CS(=O)(=O)Nc1cnc2[nH]cc(-c3cc(Cl)nc(NC4CCCCC4)c3)c2c1` [Example 256, N-{3-[2-chloro-6-(cyclohexylamino)pyridin-4-yl]-1H-pyrrolo[2,3-b]pyridin-5-yl}methanesulfonamide] was run?
Answer: < 10 nM

Question: Which Ki does the source give for `COc1cnc2[nH]cc(-c3cc(Cl)nc(NC4CCC(CC5CCC(NC(=O)c6cccnc6)CC5)CC4)c3)c2c1` (stereo not shown) [Example 257, N-{4-[(4-{[6-chloro-4-(5-methoxy-1H-pyrrolo[2,3-b]pyridin-3-yl)pyridin-2-yl]amino}cyclohexyl)methyl]cyclohexyl}pyridine-3-carboxamide] here?
Answer: < 10 nM

Question: How did the Ki turn out when `COc1cnc2[nH]cc(-c3cc(Cl)nc(N[C@H]4CC[C@H](NC(=O)CNCC(C)(C)C)CC4)c3)c2c1` [Example 258, N-(trans-4-{[6-chloro-4-(5-methoxy-1H-pyrrolo[2,3-b]pyridin-3-yl)pyridin-2-yl]amino}cyclohexyl)-N^2-(2,2-dimethylpropyl)glycinamide] was run?
Answer: < 10 nM

Question: For `COc1cnc2[nH]cc(-c3cc(Cl)nc(NC4CCC(CC5CCC(N(C)C)CC5)CC4)c3)c2c1` (stereo not shown) [Example 259, 6-chloro-N-(4-{[4-(dimethylamino)cyclohexyl]methyl}cyclohexyl)-4-(5-methoxy-1H-pyrrolo[2,3-b]pyridin-3-yl)pyridin-2-amine], which Ki is on record?
Answer: < 10 nM

Question: How did the Ki turn out when `COc1cnc2[nH]cc(-c3cc(Cl)nc(NC4CCCC(NS(=O)(=O)C5CC5)C4)c3)c2c1` (stereo not shown) [Example 260, N-(3-{[6-chloro-4-(5-methoxy-1H-pyrrolo[2,3-b]pyridin-3-yl)pyridin-2-yl]amino}cyclohexyl)cyclopropanesulfonamide] was run?
Answer: < 10 nM

Question: Which Ki does the source give for `COc1cnc2[nH]cc(-c3cc(Cl)nc(NC4CCCC(NC(C)=O)C4)c3)c2c1` (stereo not shown) [Example 261, N-(3-{[6-chloro-4-(5-methoxy-1H-pyrrolo[2,3-b]pyridin-3-yl)pyridin-2-yl]amino}cyclohexyl)acetamide] here?
Answer: < 10 nM

Question: How did the Ki turn out when `COc1cnc2[nH]cc(-c3cc(Cl)nc(NC4CCCC(NS(=O)(=O)c5cccs5)C4)c3)c2c1` (stereo not shown) [Example 262, N-(3-{[6-chloro-4-(5-methoxy-1H-pyrrolo[2,3-b]pyridin-3-yl)pyridin-2-yl]amino}cyclohexyl)thiophene-2-sulfonamide] was run?
Answer: < 10 nM

Question: `COc1cnc2[nH]cc(-c3cc(Cl)nc(NC4CCCC(NC(=O)CN5CCCC5)C4)c3)c2c1` (stereo not shown) [Example 263, N-(3-{[6-chloro-4-(5-methoxy-1H-pyrrolo[2,3-b]pyridin-3-yl)pyridin-2-yl]-amino}cyclohexyl)-2-(pyrrolidin-1-yl)acetamide] was tested. Which Ki did it give?
Answer: < 10 nM

Question: For `Clc1cc(-c2c[nH]c3ncccc23)nc(NCC2CCCO2)n1` (stereo not shown) [Example 265, 4-chloro-6-(1H-pyrrolo[2,3-b]pyridin-3-yl)-N-(tetrahydrofuran-2-ylmethyl)pyrimidin-2-amine], which Ki is on record?
Answer: < 10 nM

Question: Which Ki does the source give for `Clc1cc(-c2c[nH]c3ncccc23)nc(NCc2ccncc2)n1` [Example 266, 4-chloro-N-(pyridin-4-ylmethyl)-6-(1H-pyrrolo[2,3-b]pyridin-3-yl)pyrimidin-2-amine] here?
Answer: < 10 nM

Question: For `Clc1cc(-c2c[nH]c3ncccc23)nc(NCc2cccnc2)n1` [Example 267, 4-chloro-N-(pyridin-3-ylmethyl)-6-(1H-pyrrolo[2,3-b]pyridin-3-yl)pyrimidin-2-amine], which Ki is on record?
Answer: < 10 nM

Question: `Clc1cc(-c2c[nH]c3ncccc23)nc(NCc2ccccn2)n1` [Example 268, 4-chloro-N-(pyridin-2-ylmethyl)-6-(1H-pyrrolo[2,3-b]pyridin-3-yl)pyrimidin-2-amine] was tested. Which Ki did it give?
Answer: < 10 nM

Question: For `CN(C)c1nc(Cl)cc(-c2c[nH]c3ncccc23)n1` [Example 269, 4-chloro-N,N-dimethyl-6-(1H-pyrrolo[2,3-b]pyridin-3-yl)pyrimidin-2-amine], which Ki is on record?
Answer: < 10 nM

Question: Which Ki does the source give for `O=C(N[C@H]1CC[C@H](Nc2nc(Cl)cc(-c3c[nH]c4ncccc34)n2)CC1)C1CC1` [Example 271, N-(trans-4-{[4-chloro-6-(1H-pyrrolo[2,3-b]pyridin-3-yl)pyrimidin-2-yl]amino}cyclohexyl)cyclopropanecarboxamide] here?
Answer: < 10 nM

Question: Which Ki does the source give for `O=C(NC1CCCC(Nc2nc(Cl)cc(-c3c[nH]c4ncccc34)n2)C1)C1CC1` (stereo not shown) [Example 272, N-(3-{[4-chloro-6-(1H-pyrrolo[2,3-b]pyridin-3-yl)pyrimidin-2-yl]amino}cyclohexyl)cyclopropanecarboxamide] here?
Answer: < 10 nM

Question: For `Clc1cc(-c2c[nH]c3ncccc23)nc(NC2CCCC(NC3CCC3)C2)n1` (stereo not shown) [Example 274, N-[4-chloro-6-(1H-pyrrolo[2,3-b]pyridin-3-yl)pyrimidin-2-yl]-N′-cyclobutylcyclohexane-1,3-diamine], which Ki is on record?
Answer: < 10 nM

Question: With `Clc1cc(-c2c[nH]c3ncccc23)nc(N[C@H]2CC[C@H](NC3CCC3)CC2)n1` [Example 275, trans-N-[4-chloro-6-(1H-pyrrolo[2,3-b]pyridin-3-yl)pyrimidin-2-yl]-N′-cyclobutylcyclohexane-1,4-diamine] as the compound, how does the Ki read?
Answer: < 10 nM

Question: Which Ki does the source give for `COCCNc1nc(Cl)cc(-c2c[nH]c3ncccc23)n1` [Example 279, 4-chloro-N-(2-methoxyethyl)-6-(1H-pyrrolo[2,3-b]pyridin-3-yl)pyrimidin-2-amine] here?
Answer: < 10 nM

Question: Which Ki does the source give for `O=C(Nc1ccccc1)N[C@H]1CC[C@H](Nc2nc(Cl)cc(-c3c[nH]c4ncccc34)n2)CC1` [Example 281, 1-(trans-4-{[4-chloro-6-(1H-pyrrolo[2,3-b]pyridin-3-yl)pyrimidin-2-yl]amino}cyclohexyl)-3-phenylurea] here?
Answer: < 10 nM

Question: With `O=S(=O)(N[C@H]1CC[C@H](Nc2nc(Cl)cc(-c3c[nH]c4ncccc34)n2)CC1)C1CC1` [Example 282, N-(trans-4-{[4-chloro-6-(1H-pyrrolo[2,3-b]pyridin-3-yl)pyrimidin-2-yl]amino}cyclohexyl)cyclopropanesulfonamide] as the compound, how does the Ki read?
Answer: < 10 nM

Question: Which Ki does the source give for `Cc1noc(C)c1S(=O)(=O)NC1CCC(Nc2cc(-c3c[nH]c4ncccc34)cc(Cl)n2)CC1` (stereo not shown) [Example 283, N-(4-{[6-chloro-4-(1H-pyrrolo[2,3-b]pyridin-3-yl)pyridin-2-yl]amino}cyclohexyl)-3,5-dimethyl-1,2-oxazole-4-sulfonamide] here?
Answer: < 10 nM

Question: `COC[C@H](Cc1ccccc1)Nc1cc(-c2c[nH]c3ncccc23)cc(Cl)n1` [Example 284, 6-chloro-N-[(2S)-1-methoxy-3-phenylpropan-2-yl]-4-(1H-pyrrolo[2,3-b]pyridin-3-yl)pyridin-2-amine] was tested. Which Ki did it give?
Answer: < 10 nM

Question: Which Ki does the source give for `Clc1cc(-c2c[nH]c3ncccc23)cc(NC2CCCC(NC3CCCC3)C2)n1` (stereo not shown) [Example 285, N-[6-chloro-4-(1H-pyrrolo[2,3-b]pyridin-3-yl)pyridin-2-yl]-N′-cyclopentylcyclohexane-1,3-diamine] here?
Answer: 10 to 100 nM

Question: How did the Ki turn out when `CCOC(=O)CNC(=O)NC1CCC(Nc2cc(-c3c[nH]c4ncccc34)cc(Cl)n2)CC1` (stereo not shown) [Example 286, ethyl N-[(4-{[6-chloro-4-(1H-pyrrolo[2,3-b]pyridin-3-yl)pyridin-2-yl]amino}cyclohexyl)carbamoyl]glycinate] was run?
Answer: < 10 nM

Question: `CC(C)NC(=O)NC1CCC(Nc2cc(-c3c[nH]c4ncccc34)cc(Cl)n2)CC1` (stereo not shown) [Example 287, 1-(4-{[6-chloro-4-(1H-pyrrolo[2,3-b]pyridin-3-yl)pyridin-2-yl]amino}cyclohexyl)-3-propan-2-ylurea] was tested. Which Ki did it give?
Answer: < 10 nM

Question: Which Ki does the source give for `CC(C)(C)NC(=O)NC1CCC(Nc2cc(-c3c[nH]c4ncccc34)cc(Cl)n2)CC1` (stereo not shown) [Example 288, 1-tert-butyl-3-(4-{[6-chloro-4-(1H-pyrrolo[2,3-b]pyridin-3-yl)pyridin-2-yl]amino}cyclohexyl)urea] here?
Answer: < 10 nM

Question: For `COCC(=O)NC1CCC(Nc2cc(-c3c[nH]c4ncccc34)cc(Cl)n2)CC1` (stereo not shown) [Example 289, N-(4-{[6-chloro-4-(1H-pyrrolo[2,3-b]pyridin-3-yl)pyridin-2-yl]amino}cyclohexyl)-2-methoxyacetamide], which Ki is on record?
Answer: < 10 nM

Question: How did the Ki turn out when `Clc1cc(-c2c[nH]c3ncccc23)cc(NC2CCCC(NCc3nccs3)C2)n1` (stereo not shown) [Example 290, N-[6-chloro-4-(1H-pyrrolo[2,3-b]pyridin-3-yl)pyridin-2-yl]-N′-(1,3-thiazol-2-ylmethyl)cyclohexane-1,3-diamine] was run?
Answer: < 10 nM

Question: `Clc1cc(-c2c[nH]c3ncccc23)cc(NC2CCCC(NCc3cccc(CN4CCCCC4)c3)C2)n1` (stereo not shown) [Example 291, N-[6-chloro-4-(1H-pyrrolo[2,3-b]pyridin-3-yl)pyridin-2-yl]-N′-[3-(piperidin-1-ylmethyl)benzyl]cyclohexane-1,3-diamine] was tested. Which Ki did it give?
Answer: < 10 nM
